In patent publication US20050214738A1, “Conditional allele system” (priority 2003, published 2005):

Columns and labels:
FKBP-GSK3β-GFP = molecular target: T1, FKBP-GSK3β-GFP (Homo sapiens, UniProt P62942); test: Sub-cellular localization of FKBP-GSK3β-GFP with FRB(TLW)-NES and FRB(KTF)-NLS in COS1 cells; format: cell-based; details: 10 nM, 1 hour
T1 construct: expressed in transfected cells; host or cells: COS1 cells
Experimental: COS1 cells were electroporated with 1 μg pS-FKBP-GSK3β-GFP, 1 μg of the ‘exporter’ pBJ5-FRB(TLW)-Exp-HA containing a nuclear export sequence derived from the rev protein of Human Immunodeficiency Virus and 3 μg of the ‘importer’ pBJ5-FRB(KTF)-Imp with a nuclear localization sequence from SV40 Large T antigen. Cells were plated on autoclaved coverslips and incubated 36 hours followed by 1 hour of rapalog treatment (10 nM). Cells were fixed 10 minutes in 4% paraformaldeyde/PBS at 4° C. and mounted for microscopy with DAPI to visualize the nucleus. Microscopy was perfomed with a Leica confocal microscope and Leica software.

mutant FRBs = test: SeAP transcriptional switch assay, panel of FRB mutants at 2095, 2098, 2101; format: cell-based, human; details: Phe at 2101
Experimental: All FRB mutants were prepared by the Quikchange mutagenesis method (Stratagene) using protocols provided by the manufacturer. Briefly, PCR reactions containing the parent plasmid pBJ5-FRB-VP16-HA or pBJ5-FRB*-VP16-HA and overlapping oligonucleotides containing the relevant base changes were performed with Pfu polymerase (Stratagene, San Diego, Calif.). PCR reactions were digested with the methylation sensitive restriction endonuclease Dpn1 to eliminate the parent plasmid and the reaction was transformed in XL10-Gold Ultracompetent E. coli (Stratagene).
Electroporation details are available upon request. Cells were immediately aliquoted to 2 or 3×96 well plates with flat bottoms. […] Data was analysed with Softmax Pro (Molecular Devices), Microsoft Excel and Prism 3 (GraphPad Software).

T1 sequence (P62942 whole entry): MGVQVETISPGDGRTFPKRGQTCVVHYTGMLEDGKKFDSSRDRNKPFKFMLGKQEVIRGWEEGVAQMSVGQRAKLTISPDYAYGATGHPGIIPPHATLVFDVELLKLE

sub-cellular localization of GSK3β (FKBP-GSK3β-GFP): localized to the cytoplasm
binding to mutant FRBs with Phe substituted at amino acid 2101 (mutant FRBs): little or no binding
Substance: C16-(S)Butylsulfonylrapamycin [C16-BSrap, reference compound]
